The molecules below were run against truncated PI3Kα (p110α/iSH2 p85α) (Homo sapiens (Human), UniProt P42336) (assay: PI3KA_Act fluorescence polarization kinase assay (Ki)). Details: 1 mM ATP.
Type: biochemical
Summary of the method: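 Ki values result from fitting fluorescence polarization signals to the Morrison equation for tight-binding competitive inhibitors. The detector was GST-Grp1 PH domain with TAMRA-PIP3, read after a 30 min room-temperature reaction of 0.5 nM truncated PI3Kα and 30 μM PIP2 at pH 7.4 in HEPES/NaCl/MgCl2/DTT/CHAPS buffer. Compounds were tested as 12-point 3-fold dilutions from 3 μM.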

Sequence of truncated PI3Kα (p110α/iSH2 p85α) (P42336 whole entry, the tested form may be a part): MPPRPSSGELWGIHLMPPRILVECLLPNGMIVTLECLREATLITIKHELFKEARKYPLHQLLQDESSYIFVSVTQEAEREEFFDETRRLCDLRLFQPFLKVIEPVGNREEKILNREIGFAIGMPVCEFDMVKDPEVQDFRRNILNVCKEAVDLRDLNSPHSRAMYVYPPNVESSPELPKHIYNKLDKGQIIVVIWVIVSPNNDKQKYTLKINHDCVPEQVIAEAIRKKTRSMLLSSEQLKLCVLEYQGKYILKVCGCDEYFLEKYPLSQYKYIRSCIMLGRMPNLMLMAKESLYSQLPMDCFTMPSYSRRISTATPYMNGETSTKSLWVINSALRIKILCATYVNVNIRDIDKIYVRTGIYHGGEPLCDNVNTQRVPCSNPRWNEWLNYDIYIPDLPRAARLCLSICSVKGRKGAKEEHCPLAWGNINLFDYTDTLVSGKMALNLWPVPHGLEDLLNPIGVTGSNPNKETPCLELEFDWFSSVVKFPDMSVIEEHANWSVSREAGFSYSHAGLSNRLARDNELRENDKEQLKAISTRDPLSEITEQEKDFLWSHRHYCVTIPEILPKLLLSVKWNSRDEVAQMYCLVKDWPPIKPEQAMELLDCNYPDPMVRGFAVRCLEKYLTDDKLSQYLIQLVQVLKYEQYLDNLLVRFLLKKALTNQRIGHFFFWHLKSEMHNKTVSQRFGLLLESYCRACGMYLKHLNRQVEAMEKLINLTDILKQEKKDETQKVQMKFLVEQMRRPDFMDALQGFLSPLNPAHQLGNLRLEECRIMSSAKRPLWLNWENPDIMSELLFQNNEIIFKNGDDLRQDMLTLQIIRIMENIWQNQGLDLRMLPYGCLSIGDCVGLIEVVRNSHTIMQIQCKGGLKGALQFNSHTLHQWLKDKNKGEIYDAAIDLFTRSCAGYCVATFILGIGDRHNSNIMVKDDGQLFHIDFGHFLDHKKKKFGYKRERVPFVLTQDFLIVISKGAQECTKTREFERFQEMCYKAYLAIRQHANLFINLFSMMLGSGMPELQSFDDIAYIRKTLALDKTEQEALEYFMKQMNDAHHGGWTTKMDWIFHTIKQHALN

SMILES | PI3KA_Act Ki [nM]
CC[C@]1(N2CCc3c(-c4cnc(N)nc4)nc(N4CCOCC4)nc32)CCNC1.Cl [Example 257, 5-{7-[(3S)-3-ethylpyrrolidin-3-yl)-2-(morpholin-4-yl)-6,7-dihydro-5H-pyrrolo[2,3-d]pyrimidin-4-yl}pyrimidin-2-amine hydrochloride] | 0.955
C[C@]1(N2CCc3c(-c4cnc(N)nc4)nc(N4CCOCC4)nc32)CCNC1=O [Example 258, (3S)-3-[4-(2-aminopyrimidin-5-yl)-2-(morpholin-4-yl)-5,6-dihydro-7H-pyrrolo[2,3-d]pyrimidin-7-yl]-3-methylpyrrolidin-2-one] | 31.787
CC(=O)N1CC[C@@](C)(N2CCc3c(-c4cnc(N)nc4)nc(N4CCOCC4)nc32)C1 [Example 259, 1-{(3R)-3-[4-(2-aminopyrimidin-5-yl)-2-(morpholin-4-yl)-5,6-dihydro-7H-pyrrolo[2,3-d]pyrimidin-7-yl]-3-methylpyrrolidin-1-yl}ethanone] | 0.139
CCC(=O)N1CC[C@](C)(N2CCc3c(-c4cnc(N)nc4)nc(N4CCOCC4)nc32)C1 [Example 260, 1-{(3S)-3-[4-(2-aminopyrimidin-5-yl)-2-(morpholin-4-yl)-5,6-dihydro-7H-pyrrolo[2,3-d]pyrimidin-7-yl]-3-methylpyrrolidin-1-yl}propan-1-one] | 0.030
CCC(=O)N1CC[C@@](C)(N2CCc3c(-c4cnc(N)nc4)nc(N4CCOCC4)nc32)C1 [Example 261, 1-{(3R)-3-[4-(2-aminopyrimidin-5-yl)-2-(morpholin-4-yl)-5,6-dihydro-7H-pyrrolo[2,3-d]pyrimidin-7-yl]-3-methylpyrrolidin-1-yl}propan-1-one] | 0.143
CC(C)C(=O)N1CC[C@](C)(N2CCc3c(-c4cnc(N)nc4)nc(N4CCOCC4)nc32)C1 [Example 262, 1-{(3S)-3-[4-(2-aminopyrimidin-5-yl)-2-(morpholin-4-yl)-5,6-dihydro-7H-pyrrolo[2,3-d]pyrimidin-7-yl]-3-methylpyrrolidin-1-yl}-2-methylpropan-1-one] | <0.018
CC(C)C(=O)N1CC[C@@](C)(N2CCc3c(-c4cnc(N)nc4)nc(N4CCOCC4)nc32)C1 [Example 263, 1-{(3R)-3-[4-(2-aminopyrimidin-5-yl)-2-(morpholin-4-yl)-5,6-dihydro-7H-pyrrolo[2,3-d]pyrimidin-7-yl]-3-methylpyrrolidin-1-yl}-2-methylpropan-1-one] | 0.122
CC(C)(C)C(=O)N1CC[C@](C)(N2CCc3c(-c4cnc(N)nc4)nc(N4CCOCC4)nc32)C1 [Example 264, 1-{(3S)-3-[4-(2-aminopyrimidin-5-yl)-2-(morpholin-4-yl)-5,6-dihydro-7H-pyrrolo[2,3-d]pyrimidin-7-yl]-3-methylpyrrolidin-1-yl}-2,2-dimethylpropan-1-one] | <0.018
C[C@]1(N2CCc3c(-c4cnc(N)nc4)nc(N4CCOCC4)nc32)CCN(C(=O)CC#N)C1 [Example 265, 3-{(3S)-3-[4-(2-aminopyrimidin-5-yl)-2-(morpholin-4-yl)-5,6-dihydro-7H-pyrrolo[2,3-d]pyrimidin-7-yl]-3-methylpyrrolidin-1-yl}-3-oxopropanenitrile] | 0.048
C[C@@]1(N2CCc3c(-c4cnc(N)nc4)nc(N4CCOCC4)nc32)CCN(C(=O)CC#N)C1 [Example 266, 3-{(3R)-3-[4-(2-aminopyrimidin-5-yl)-2-(morpholin-4-yl)-5,6-dihydro-7H-pyrrolo[2,3-d]pyrimidin-7-yl]-3-methylpyrrolidin-1-yl}-3-oxopropanenitrile] | 0.139
C[C@@H](O)C(=O)N1CC[C@](C)(N2CCc3c(-c4cnc(N)nc4)nc(N4CCOCC4)nc32)C1 [Example 267, (2R)-1-{(3S)-3-[4-(2-aminopyrimidin-5-yl)-2-(morpholin-4-yl)-5,6-dihydro-7H-pyrrolo[2,3-d]pyrimidin-7-yl]-3-methylpyrrolidin-1-yl}-2-hydroxypropan-1-one] | 0.041
C[C@H](O)C(=O)N1CC[C@](C)(N2CCc3c(-c4cnc(N)nc4)nc(N4CCOCC4)nc32)C1 [Example 268, (2S)-1-{(3S)-3-[4-(2-aminopyrimidin-5-yl)-2-(morpholin-4-yl)-5,6-dihydro-7H-pyrrolo[2,3-d]pyrimidin-7-yl]-3-methylpyrrolidin-1-yl}-2-hydroxypropan-1-one] | 0.100
C[C@@H](O)C(=O)N1CC[C@@](C)(N2CCc3c(-c4cnc(N)nc4)nc(N4CCOCC4)nc32)C1 [Example 269, (2R)-1-{(3R)-3-[4-(2-aminopyrimidin-5-yl)-2-(morpholin-4-yl)-5,6-dihydro-7H-pyrrolo[2,3-d]pyrimidin-7-yl]-3-methylpyrrolidin-1-yl}-2-hydroxypropan-1-one] | 0.222
C[C@H](O)C(=O)N1CC[C@@](C)(N2CCc3c(-c4cnc(N)nc4)nc(N4CCOCC4)nc32)C1 [Example 270, (2S)-1-{(3R)-3-[4-(2-aminopyrimidin-5-yl)-2-(morpholin-4-yl)-5,6-dihydro-7H-pyrrolo[2,3-d]pyrimidin-7-yl]-3-methylpyrrolidin-1-yl}-2-hydroxypropan-1-one] | 0.074
CC(C)[C@@H](O)C(=O)N1CC[C@](C)(N2CCc3c(-c4cnc(N)nc4)nc(N4CCOCC4)nc32)C1 [Example 271, (2R)-1-{(3S)-3-[4-(2-aminopyrimidin-5-yl)-2-(morpholin-4-yl)-5,6-dihydro-7H-pyrrolo[2,3-d]pyrimidin-7-yl]-3-methylpyrrolidin-1-yl}-2-hydroxy-3-methylbutan-1-one] | 0.016
CC(C)[C@H](O)C(=O)N1CC[C@](C)(N2CCc3c(-c4cnc(N)nc4)nc(N4CCOCC4)nc32)C1 [Example 272, (2S)-1-{(3S)-3-[4-(2-aminopyrimidin-5-yl)-2-(morpholin-4-yl)-5,6-dihydro-7H-pyrrolo[2,3-d]pyrimidin-7-yl]-3-methylpyrrolidin-1-yl}-2-hydroxy-3-methylbutan-1-one] | 0.022
CC(C)(O)C(=O)N1CC[C@](C)(N2CCc3c(-c4cnc(N)nc4)nc(N4CCOCC4)nc32)C1 [Example 275, 1-{(3S)-3-[4-(2-aminopyrimidin-5-yl)-2-(morpholin-4-yl)-5,6-dihydro-7H-pyrrolo[2,3-d]pyrimidin-7-yl]-3-methylpyrrolidin-1-yl}-2-hydroxy-2-methylpropan-1-one] | 0.030
CC(C)(O)CN1CC[C@@](C)(N2CCc3c(-c4cnc(N)nc4)nc(N4CCOCC4)nc32)C1 [Example 276, 1-{(3R)-3-[4-(2-aminopyrimidin-5-yl)-2-(morpholin-4-yl)-5,6-dihydro-7H-pyrrolo[2,3-d]pyrimidin-7-yl]-3-methylpyrrolidin-1-yl}-2-methylpropan-2-ol] | 0.182
COC(C)(C)C(=O)N1CC[C@](C)(N2CCc3c(-c4cnc(N)nc4)nc(N4CCOCC4)nc32)C1 [Example 278, 1-{(3S)-3-[4-(2-aminopyrimidin-5-yl)-2-(morpholin-4-yl)-5,6-dihydro-7H-pyrrolo[2,3-d]pyrimidin-7-yl]-3-methylpyrrolidin-1-yl}-2-methoxy-2-methylpropan-1-one] | <0.018
COCC(=O)N1CC[C@](C)(N2CCc3c(-c4cnc(N)nc4)nc(N4CCOCC4)nc32)C1 [Example 279, 1-{(3S)-3-[4-(2-aminopyrimidin-5-yl)-2-(morpholin-4-yl)-5,6-dihydro-7H-pyrrolo[2,3-d]pyrimidin-7-yl]-3-methylpyrrolidin-1-yl}-2-methoxyethanone] | 0.027
COCC(=O)N1CC[C@@](C)(N2CCc3c(-c4cnc(N)nc4)nc(N4CCOCC4)nc32)C1 [Example 280, 1-{(3R)-3-[4-(2-aminopyrimidin-5-yl)-2-(morpholin-4-yl)-5,6-dihydro-7H-pyrrolo[2,3-d]pyrimidin-7-yl]-3-methylpyrrolidin-1-yl}-2-methoxyethanone] | 0.154
CC(C)(N)CC(=O)N1CC[C@](C)(N2CCc3c(-c4cnc(N)nc4)nc(N4CCOCC4)nc32)C1.Cl [Example 281, 3-amino-1-{(3S)-3-[4-(2-aminopyrimidin-5-yl)-2-(morpholin-4-yl)-5,6-dihydro-7H-pyrrolo[2,3-d]pyrimidin-7-yl]-3-methylpyrrolidin-1-yl}-3-methylbutan-1-one hydrochloride] | 0.024
CC(C)(N)C(=O)N1CC[C@@H](N2CCc3c(-c4cnc(N)nc4)nc(N4CCOCC4)nc32)C1.Cl [Example 282, 2-amino-1-{(3R)-3-[4-(2-aminopyrimidin-5-yl)-2-(morpholin-4-yl)-5,6-dihydro-7H-pyrrolo[2,3-d]pyrimidin-7-yl]pyrrolidin-1-yl}-2-methylpropan-1-one hydrochloride] | 4.040
CC(C)(N)C(=O)N1CC[C@H](N2CCc3c(-c4cnc(N)nc4)nc(N4CCOCC4)nc32)C1.Cl [Example 283, 2-amino-1-{(3S)-3-[4-(2-aminopyrimidin-5-yl)-2-(morpholin-4-yl)-5,6-dihydro-7H-pyrrolo[2,3-d]pyrimidin-7-yl]pyrrolidin-1-yl}-2-methylpropan-1-one hydrochloride] | 0.208
CC[C@@]1(N2CCc3c(-c4cnc(N)nc4)nc(N4CCOCC4)nc32)CCN(C(=O)C(C)(C)N)C1.Cl [Example 284, 2-amino-1-{(3R)-3-[4-(2-aminopyrimidin-5-yl)-2-(morpholin-4-yl)-5,6-dihydro-7H-pyrrolo[2,3-d]pyrimidin-7-yl]-3-ethylpyrrolidin-1-yl}-2-methylpropan-1-one hydrochloride] | 0.368

Source: US9260439B2, “Dihydropyrrolopyrimidine derivatives” (PFIZER INC., priority 2014, dated 2016)
